Tested on: S. aureus ATCC 10390
Test: Agar overlay TTC assay
Assay type: cell-based, Staphylococcus aureus
Settings: macroarray copies, 15 mL agar
From the text: To take advantage of the spatially-addressed nature of the macroarray format, an agar overlay assay was employed that utilizes TTC (triphenyl tetrazolium chloride) as a visualization agent (FIG. 2[…].; Lu, A. T.; Solas, D. W.; Gore, […].; Coffin, […].; Wang, […].; Look, G. C.; Campbell, […]. Antimicrob. Agents Chemother. 1998, 1447-1453. Unfortunately, during macroarray synthesis the planarity of the support is not fully maintained, and small wrinkles develop in this particular assay. This problem was solved by using an adaptation of the common Western Blot technique to copy the macroarray members from the support to fresh wrinkle-free sheets while maintaining the spatially-addressed nature. This transfer can be completed in 90 seconds and four copies can be made at a time, however to date, it is applicable only for smaller macroarrays (6 cm×6 cm, 16 spots). The full macroarray was easily divided into these dimensions. The copies allowed for replicates to be made, and the original, which cannot be used in the assay, is used to validate the compounds by LCMS. As an added feature, the sensitivity of the assay was tuned by simply changing the amount of agar applied to the array. The copies generated in the assay can also be easily used to screened against multiple organisms. […] This assay format also took advantage of the spatially addressed nature of the arrays (FIG. 2C). […]

## O=C(/C=C/c1cc(C(F)(F)F)cc(C(F)(F)F)c1)c1cccc(O)c1 [Compound 4Bv, 3′-hydroxy-3,5-bis(trifluoromethyl)chalcone]
  relative activity in agar overlay TTC assay: most active
